Experimental findings from ChEMBL document CHEMBL1134241, “Spatial requirements of the antagonist binding site of the NK2 receptor” (Bioorg Med Chem Lett, 2001) are described below.

Usually IC50 stands for the concentration that gives 50% inhibition.

This assay deals with T1, Substance-K receptor (Homo sapiens, UniProt P21452).
T1 sequence (P21452 whole entry): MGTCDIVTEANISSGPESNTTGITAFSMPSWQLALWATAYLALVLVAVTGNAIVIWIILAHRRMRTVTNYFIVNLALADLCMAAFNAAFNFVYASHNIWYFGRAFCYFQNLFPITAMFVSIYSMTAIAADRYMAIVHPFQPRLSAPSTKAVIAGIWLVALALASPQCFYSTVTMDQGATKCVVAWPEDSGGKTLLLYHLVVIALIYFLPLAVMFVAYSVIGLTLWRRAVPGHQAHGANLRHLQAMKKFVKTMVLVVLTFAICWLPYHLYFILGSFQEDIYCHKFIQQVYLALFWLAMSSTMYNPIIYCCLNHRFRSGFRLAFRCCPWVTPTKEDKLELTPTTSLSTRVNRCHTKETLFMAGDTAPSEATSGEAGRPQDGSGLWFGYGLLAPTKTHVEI
Kind of assay: Binding affinity for heterologously expressed human Tachykinin receptor 2 using [3H]-SR- 48968 as radioligand.
In turn, `[O-][S+](C[C@]1(O)CCN2CCc3c([nH]c4ccc(F)cc34)[C@H]2C1)c1ccccc1` (mixture of isomers) returned an IC50 of 25.3 µM.

`COC1(C[S+]([O-])c2ccccc2)CCN(CCc2c[nH]c3ccc(F)cc23)CC1` (racemic) came in with a concentration for half-maximal inhibition (IC50) of 0.0025 µM.

Regarding `[O-][S+](CC1(O)CCN(CCc2c[nH]c3ccc(F)cc23)CC1)c1ccc2ccccc2c1` (racemic), the IC50 was determined as 0.0134 µM.

`CN(C)C(=O)NC1(c2ccccc2)CCN(CC[C@@]2(c3ccc(F)c(F)c3)CN(C(=O)c3ccccc3)CCO2)CC1` (racemic) came in with an IC50 of 0.006 µM.

On to `[O-][S+](c1ccccc1)C(c1ccccc1)C1(O)CCN(CCc2c[nH]c3ccc(F)cc23)CC1` (racemic), for which the IC50 turned out to be 0.111 µM.

In turn, `CN(C[C@@H](CCN1CCC(NC(=O)c2ccccc2)(c2ccccc2)CC1)c1ccc(Cl)c(Cl)c1)C(=O)c1ccccc1` (racemic) gave a 50% inhibitory concentration (IC50) of 0.0143 µM.

Compound `[O-][S+](CC1(O)CCN(CCc2c[nH]c3ccc(F)cc23)CC1)c1ccccc1` (racemic) [4-BENZENESULFINYLMETHYL-1-[2-(5-FLUORO-1H-INDOL-3-YL)-ETHYL]-PIPERIDIN-4-OL (STRUCTURAL MIX)] returned a half-inhibitory concentration (IC50) of 0.022 µM.
